Patent US20060110401A1, “Mixture of peptides from c and ns3 proteins of the hepatitis c virus and applications thereof” (priority 2002, published 2006)
Read-outs that look alike come from different tables or passages of the source. Marks after values point to notes of the source that are not given here. Residues, ends and D or L forms follow the SMILES beside them.

Experiments:
HLA-DR1 (DRB1*0101) = biological target: T1, HLA-DR1 (DRB1*0101) (Homo sapiens, UniProt P01903+P01911, A100R/D57E/F55L/F60I/F76Y/I96L/L162R/M171V/P40L/Q125E/R42F/V115G/Y59C); assay: biochemical; assay type: binding; settings: for IC50: DRB1*0101
T1 construct: endogenous in cells; host or cells: homozygous EBV-transformed human B lymphocyte lines; immunopurified with antibody L243

DP402 = assay: DP402
DR4 = assay: DR4
DR3 = assay: DR3
Excerpt: (§1) Table printed on a drawing sheet, Figure 2
Where the first naming reader finds the target: head: DR3

DRB5 = assay: DRB5
DRB3 = assay: DRB3
DR15 = assay: DR15
DRB4 = assay: DRB4
Excerpt: as §1
Where the first naming reader finds the target: head: DRB4

DR11 = assay: DR11
Excerpt: as §1
Where the first naming reader finds the target: head: DR11

HLA-DR13 (DRB1*1301) = HLA-DR13 (DRB1*1301) (Homo sapiens, UniProt P01903+P01911, A100E/A169T/K41T/L162R/M171V/P40S/Q125H/Q178H/Q39Y/Q99D/R42S/S66N/T262R/W38E/Y61H); assay: biochemical; assay type: binding
HLA-DR4 (DRB1*0401) = biological target: T2, HLA-DR4 (DRB1*0401) (Homo sapiens, UniProt P01903+P01911, A100K/A169T/F76Y/I96L/K127E/L162R/M171V/N62H/P40V/Q125Y/R42H/S133A/S149N/S66Y/V115G/V209L/W38E); assay: biochemical; assay type: binding; settings: read-out: binds with good affinity to DR4
T2 construct: endogenous in cells; host or cells: homozygous EBV-transformed human B lymphocyte lines; immunopurified with antibody L243

HLA-DR15 (DRB1*1501) = biological target: T3, HLA-DR15 (DRB1*1501) (Homo sapiens, UniProt P01903+P01911); assay: biochemical; assay type: binding; settings: DRB1*1501; read-out: binds with good affinity to DR15
T3 construct: endogenous in cells; host or cells: homozygous EBV-transformed human B lymphocyte lines; immunopurified with antibody L243

HLA-DRB4 (DRB4*0101) = biological target: T4, HLA-DRB4 (DRB4*0101) (Homo sapiens, UniProt P01903+P13762, G164S); assay: biochemical; assay type: binding; settings: read-out: binds with good affinity to DRB4
T4 construct: endogenous in cells; host or cells: homozygous EBV-transformed human B lymphocyte lines; immunopurified with antibody L243

HLA-DR7 (DRB1*0701) = HLA-DR7 (DRB1*0701) (Homo sapiens, UniProt P01903+P01911, A100R/A102G/A103Q/D57E/D86V/E43K/F76Y/K127E/L162R/M171V/P40G/Q125H/Q99D/R33Q/R42Y/R54Q/S133A/S66F/T210M/V115G/Y107V/Y59L/Y89S); assay: biochemical; assay type: binding; settings: read-out: binds with good affinity to DR7
DR1 = assay: DR1
HLA-DR11 (DRB1*1101) = HLA-DR11 (DRB1*1101) (Homo sapiens, UniProt P01903+P01911, A100R/A169T/A87E/I96F/K41T/L162R/M171V/P40S/Q125H/Q178H/Q39Y/Q99D/R42S/S66Y/T262R/V115G/W38E); assay: biochemical; assay type: binding; settings: read-out: binds with good affinity to DR11
DR7 = assay: DR7
HLA-DRB5 (DRB5*0101) = biological target: T5, HLA-DRB5 (DRB5*0101) (Homo sapiens, UniProt P01903+Q30154); assay: biochemical; assay type: binding; settings: read-out: binds with good affinity to DRB5
T5 construct: endogenous in cells; host or cells: homozygous EBV-transformed human B lymphocyte lines; immunopurified with antibody L243

DP401 = assay: DP401
[1] = tested on: T lymphocytes derived from PBMCs from patients chronically infected with HCV; assay type: cell-based, human
[2] = read-out: binds with good affinity to DR1
[3] = patient 093, supernatant 48 h, —: not detected

Chain of HLA-DR11 (DRB1*1101) (P01903 26-254 limits assumed, other chains not shown): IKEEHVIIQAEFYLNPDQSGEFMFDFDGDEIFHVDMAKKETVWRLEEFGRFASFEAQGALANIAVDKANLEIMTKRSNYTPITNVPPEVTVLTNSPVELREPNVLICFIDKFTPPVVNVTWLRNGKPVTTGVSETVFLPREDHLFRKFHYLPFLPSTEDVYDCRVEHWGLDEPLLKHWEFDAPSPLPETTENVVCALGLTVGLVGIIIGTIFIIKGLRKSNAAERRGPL

SMILES: CC(C)C[C@H](NC(=O)[C@H](Cc1c[nH]c2ccccc12)NC(=O)CNC(=O)[C@H](C)NC(=O)[C@@H](N)Cc1c[nH]c2ccccc12)C(=O)N[C@@H](CC(C)C)C(=O)N[C@@H](CO)C(=O)N1CCC[C@H]1C(=O)N[C@@H](CCCNC(=N)N)C(=O)NCC(=O)N[C@@H](CO)C(=O)N[C@@H](CCCNC(=N)N)C(=O)N1CCC[C@H]1C(=O)N[C@@H](CO)C(=O)N[C@@H](Cc1c[nH]c2ccccc12)C(=O)O [3C 93-107] (H-WAGWLLSPRGSRPSW-OH; N-terminus and C-terminus assumed)
- IC50 (HLA-DR1 (DRB1*0101); competition with biotinylated tracer HA 306-318, read-out: IC50, binding to HLA-DR1): 6330 nM
- affinity for HLA-DR1 (in words) (HLA-DR1 (DRB1*0101); legend of FIG. 4): low affinity
- IC50 (DP402): > 100000 nM
- IC50 (DR4): 60000 nM
- IC50 (DR3): 50000 nM
- IC50 (DRB5): 2570 nM
- IC50 (DRB3): > 100000 nM
- IC50 (DR15): 27500 nM
- IC50 (DRB4): 5000 nM
- IC50 (DR11): 87 nM

SMILES: CC[C@H](C)[C@H](NC(=O)[C@H](Cc1c[nH]cn1)NC(=O)[C@H](CCCNC(=N)N)NC(=O)[C@@H](NC(=O)[C@@H](NC(=O)[C@H](CC(C)C)NC(=O)[C@H](CCCNC(=N)N)NC(=O)[C@@H](NC(=O)[C@H](CCCNC(=N)N)NC(=O)[C@H](CCC(=O)O)NC(=O)[C@@H](N)[C@@H](C)O)C(C)C)C(C)C)[C@@H](C)O)C(=O)N[C@@H](Cc1ccc(O)cc1)C(=O)N[C@@H](CC(N)=O)C(=O)N[C@@H](CCCNC(=N)N)C(=O)N[C@@H](CCC(=O)O)C(=O)N[C@@H](CCC(=O)O)C(=O)O [B1 21-36, reference compound] (H-TERVRLVTRHIYNREE-OH; N-terminus and C-terminus assumed)
- IC50 (HLA-DR13 (DRB1*1301); tracer B1 21-36, read-out: IC50, binding to HLA-DR13): 330 nM

SMILES: CC[C@H](C)[C@H](NC(=O)[C@H](CCC(N)=O)NC(=O)[C@@H](NC(=O)[C@H](CCC(=O)O)NC(=O)CNC(=O)[C@H](CCC(=O)O)NC(=O)[C@@H](NC(=O)[C@H](CCC(N)=O)NC(=O)[C@H](CC(N)=O)NC(=O)[C@@H](N)CCCCN)C(C)C)C(C)C)C(=O)N[C@H](C(=O)N[C@@H](CO)C(=O)N[C@H](C(=O)N[C@@H](C)C(=O)N[C@@H](C)C(=O)N[C@@H](CCC(N)=O)C(=O)N[C@H](C(=O)N[C@@H](Cc1ccccc1)C(=O)N[C@@H](CC(C)C)C(=O)N[C@@H](C)C(=O)N[C@H](C(=O)O)[C@@H](C)O)[C@@H](C)O)[C@@H](C)O)C(C)C [10N 1052-1072]
- IC50 (HLA-DR4 (DRB1*0401)): < 1000 nM
- IC50 (HLA-DR1 (DRB1*0101); [2]): < 1000 nM
- IC50 (DP402): 1180 nM
- IC50 (DR4): 24 nM
- IC50 (HLA-DR15 (DRB1*1501)): < 1000 nM
- IC50 (HLA-DRB4 (DRB4*0101)): < 1000 nM
- IC50 (HLA-DR7 (DRB1*0701)): < 1000 nM
- IC50 (DR1): 400 nM
- IC50 (DR3): 2250 nM
- IC50 (DRB5): 19 nM
- IC50 (HLA-DR11 (DRB1*1101)): < 1000 nM
- IC50 (DR7): 7 nM
- IC50 (HLA-DRB5 (DRB5*0101)): < 1000 nM
- IC50 (DRB3): 10000 nM
- IC50 (DR15): 300 nM
- IC50 (DRB4): 400 nM
- IC50 (DR11): 200 nM
- IC50 (DP401): 2030 nM

SMILES: CC[C@H](C)[C@H](N)C(=O)N[C@@H](CCC(=O)O)C(=O)N[C@@H](CCC(=O)O)C(=O)N[C@H](C(=O)N[C@@H](C)C(=O)N[C@@H](CC(C)C)C(=O)N[C@@H](CO)C(=O)N[C@H](C(=O)N[C@H](C(=O)NCC(=O)N[C@@H](CCC(=O)O)C(=O)N[C@H](C(=O)N1CCC[C@H]1C(=O)N[C@@H](Cc1ccccc1)C(=O)N[C@@H](Cc1ccc(O)cc1)C(=O)NCC(=O)N[C@@H](CCCCN)C(=O)N[C@@H](C)C(=O)N[C@H](C(=O)N1CCC[C@H]1C(=O)N[C@@H](CC(C)C)C(=O)N[C@@H](CCC(=O)O)C(=O)N[C@H](C(=O)N[C@H](C(=O)N[C@@H](CCCCN)C(=O)NCC(=O)O)[C@@H](C)CC)C(C)C)[C@@H](C)CC)[C@@H](C)CC)[C@@H](C)O)[C@@H](C)O)C(C)C [22N 1362-1387] (H-IEEVALSTTGEIPFYGKAIPLEVIKG-OH; N-terminus and C-terminus assumed)
- IC50 (HLA-DR1 (DRB1*0101); [2]): < 1000 nM
- IC50 (DP402): 10300 nM
- IC50 (DR4): 1620 nM
- IC50 (HLA-DR15 (DRB1*1501)): < 1000 nM
- IC50 (HLA-DR7 (DRB1*0701)): < 1000 nM
- IC50 (DR3): 21200 nM
- IC50 (DRB5): 200 nM
- IC50 (DR7): 20 nM
- IC50 (HLA-DRB5 (DRB5*0101)): < 1000 nM
- IC50 (DRB3): 32500 nM
- IC50 (DR15): 425 nM
- IC50 (DRB4): 4000 nM
- IC50 (DR11): 3000 nM
- IC50 (DP401): 8000 nM

SMILES: CC(C)C[C@H](NC(=O)[C@H](Cc1c[nH]cn1)NC(=O)[C@H](C)NC(=O)[C@@H](NC(=O)[C@H](CCC(N)=O)NC(=O)[C@H](Cc1ccccc1)NC(=O)[C@H](CO)NC(=O)[C@H](CCC(N)=O)NC(=O)[C@@H]1CCCN1C(=O)[C@@H](NC(=O)[C@@H](NC(=O)[C@@H]1CCCN1C(=O)[C@@H]1CCCN1C(=O)[C@H](CO)NC(=O)[C@H](CO)NC(=O)[C@H](CC(N)=O)NC(=O)[C@H](CC(=O)O)NC(=O)[C@@H](NC(=O)[C@H](Cc1ccccc1)NC(=O)[C@@H](NC(=O)[C@@H]1CCCN1C(=O)[C@H](CO)NC(=O)[C@@H](N)CCCNC(=N)N)C(C)C)[C@@H](C)O)C(C)C)C(C)C)C(C)C)C(=O)N[C@@H](Cc1c[nH]cn1)C(=O)N[C@@H](C)C(=O)N1CCC[C@H]1C(=O)N[C@H](C(=O)NCC(=O)N[C@@H](CO)C(=O)NCC(=O)N[C@@H](CCCCN)C(=O)N[C@@H](CO)C(=O)N[C@H](C(=O)N[C@@H](CCCCN)C(=O)O)[C@@H](C)O)[C@@H](C)O [17N 1206-1239]
- IC50 (HLA-DR4 (DRB1*0401)): < 1000 nM
- IC50 (HLA-DR1 (DRB1*0101); [2]): < 1000 nM
- IC50 (DP402): 14600 nM
- IC50 (DR4): 425 nM
- IC50 (HLA-DR7 (DRB1*0701)): < 1000 nM
- IC50 (DR1): 55 nM
- IC50 (HLA-DR11 (DRB1*1101)): < 1000 nM
- IC50 (HLA-DRB5 (DRB5*0101)): < 1000 nM
- IC50 (DRB3): 5250 nM
- IC50 (DR15): 10000 nM
- IC50 (DRB4): 3880 nM
- IC50 (DR11): 550 nM
- IC50 (DP401): 64800 nM

SMILES: CC[C@H](C)[C@H](NC(=O)[C@H](CC(C)C)NC(=O)[C@H](Cc1c[nH]cn1)NC(=O)[C@H](CCCNC(=N)N)NC(=O)CNC(=O)CNC(=O)[C@H](CCCCN)NC(=O)[C@@H](NC(=O)[C@@H](NC(=O)[C@H](CCC(=O)O)NC(=O)[C@H](CC(C)C)NC(=O)[C@@H]1CCCN1C(=O)[C@@H](NC(=O)[C@H](C)NC(=O)[C@H](CCCCN)NC(=O)CN)[C@@H](C)CC)C(C)C)[C@@H](C)CC)C(=O)N[C@@H](Cc1ccccc1)C(=O)N[C@@H](CS)C(=O)N[C@@H](Cc1c[nH]cn1)C(=O)N[C@@H](CO)C(=O)N[C@@H](CCCCN)C(=O)N[C@@H](CCCCN)C(=O)N[C@@H](CCCCN)C(=O)N[C@@H](C)C(=O)N[C@@H](CC(=O)O)C(=O)N[C@@H](CCC(=O)O)C(=O)N[C@@H](CC(C)C)C(=O)O [23N 1377-1403] (H-GKAIPLEVIKGGRHLIFCHSKKKADEL-OH; N-terminus and C-terminus assumed)
- IC50 (HLA-DR1 (DRB1*0101); [2]): < 1000 nM
- IC50 (DR4): 3000 nM
- IC50 (HLA-DRB4 (DRB4*0101)): < 1000 nM
- IC50 (HLA-DR7 (DRB1*0701)): < 1000 nM
- IC50 (DRB5): 3 nM
- IC50 (HLA-DR11 (DRB1*1101)): < 1000 nM
- IC50 (HLA-DRB5 (DRB5*0101)): < 1000 nM
- IC50 (DRB3): > 10000 nM
- IL2 ([1]; patient 067, supernatant 48 h, —: not detected): — 51 pg/ml
- IL10 ([1]; patient 078, supernatant 48 h, —: not detected): 54 pg/mL
- IFNγ [1, 3]: 57 pg/mL
- IL4 [1, 3]: 23 pg/mL
- IL10 ([1]; patient 659, supernatant 48 h, —: not detected): 29 pg/mL
- IL10 ([1]; patient 815, assay at 24 h instead of 48 h): 63* — pg/ml
- IL2 ([1]; patient 815, supernatant 48 h, —: not detected): 58 pg/mL
- IC50 (DRB4): 900 nM
- IC50 (HLA-DR13 (DRB1*1301); read-out: binds with good affinity to DR13): < 1000 nM
